Experiments:
[1] = system: choroidal neovascularization (CNV)-induced rabbit model; test: Laser-induced choroidal neovascularization (CNV) rabbit model, fluorescein angiography, retinal fluorescence intensity; format: in vivo, Chinchilla rabbit; details: for Fluorescence intensity (% of control group): rabbit CNV, instillation 300 μg/eye 1/day, day 7 (G6, G7)
From the text: After obtaining 50 male Chinchilla rabbits weighing about 2.5-3.0 kg from DREAMBIO, their health status was checked during a 7-day acclimatization period, and healthy animals were used in the test.
After the acclimatization period, 42 healthy rabbits were selected and a mydriatic agent (MIDRIACIL™ 1% eye drop) was instilled into the right eye. After anesthetizing the animals, laser (ELITE, LUMENIS, USA) was irradiated under the condition of 532 nm, power 150 mW and duration 0.1 sec, and 6 spots were made in about 6 o'clock direction around the optic nerve.
After dividing the test animals into a total of 7 groups, G1 to G7, administration of the test substance was started on the day of the CNV induction using laser with the concentrations described in Table 2. In Table 2, EYLEA™ (Aflibercept) was used as a positive control substance. For intravitreal injection, 40 μL of the positive control substance (EYLEA™) was injected intravitreally into the right eye of the animal in the anesthetized state using a syringe equipped with a 31-gauge needle on the day of the CNV induction. For instillation, after the animal was taken out of the cage and corrected naturally by an assistant, 200 μL of the test substance was instilled into the center of the cornea of the right eye by using a pipette. In the case of “a)”, the instillation was divided into 4 times and each administration was spaced by 5 minutes.
Before the administration of the test substance (0) and on 7, 14, 28, 42 and 56 days after the administration, a mydriatic agent (MIDRIACIL™ 1% eye drop) was instilled into the right of the animal. Then, after anesthetizing the animal and injecting about 1 mL of a 2% fluorescein sodium salt solution via the ear vein, images were taken within about 2 minutes using a fundus camera (TRC-50IX, Topcon, Japan).
Retinal CNV and drug efficacy were confirmed using the retinal fluorescein fundus images. The fluorescein intensity of the irradiation area was analyzed using the ImageJ software (NIH, Bethesda, MD).
For the results of this test, the significance between the test groups was tested using parametric one-way ANOVA assuming the normality of the data. When significance was recognized, a post hoc test was performed using Dunnett's multiple comparison test. Statistical analysis was performed using PRISM 7.04 (GraphPad Software Inc., San Diego, CA, USA), and p<0.05 was considered statically significant.
The test substance of the example or the comparative example was dropped onto the eye of a rabbit wherein choroidal neovascularization (CNV) was induced by laser irradiation, for 7 days, 300 μg per each administration. On day 7 after the start of the test substance administration, the eye was imaged with a fundus camera to compare the effect of the test substance on intraocular vascular leakage and the fluorescence intensity of the retina was analyzed. […] Table 3 compares the relative fluorescence intensity (% of control group) of the irradiation area determined by analyzing the retinal fluorescein angiographic images of the control group (G1), the test group (G6) and the comparison group (G7).
For a rabbit wherein choroidal neovascularization (CNV) was induced by laser irradiation, EYLEA™ was intravitreally injected as a positive control, the eye drop of the example was administered by dropping onto the eye or EYLEA™ and the eye drop of the example were co-administered. […]

[2] = system: human endothelial cells (HUVECs); test: Cell viability test (CELLTITER-GLO luminescent assay) in HUVECs; format: cell-based; details: various concentrations, 48 hours, FIG. 1A
Experimental: ARPE-19 cells (RID: CVCL 0145) and L-Wnt3a cells (RID: CVCL 0635) were acquired from American Type Culture Collection (ATCC) and cultured in a DMEM medium supplemented with 10% fetal bovine serum (FBS), 120 μg/mL penicillin and 200 μg/mL streptomycin. Human umbilical vein endothelial cells (HUVECs, RID: CVCL 2959) were purchased from CEFO (Cell Engineering for Origin) and cultured using an optimized medium (CEFOgro-HUVEC). Wnt3a-CM (Wnt3a-conditioned medium) was prepared using L-Wnt3a cells that secrete the Wnt-3a protein into the medium. First, the cells were cultured for 4 days and the medium was recovered and replaced with a fresh medium. After culturing for 3 days, the medium was recovered. […]
HUVECs were inoculated into a 96-well plate with a transparent black bottom at 5,000 cells per well, incubated overnight, and then treated with a test substances (compound of Example (1) (CGK012) or decursin of Comparative Example (1)) at various concentrations together with a medium (total volume per well: 100 μL). After 48 hours, cell viability was measured using a CELLTITER-GLO® luminescent cell viability assay kit (Promega, G7572) according to the manufacturer's instructions. […] After mixing in an orbital shaker for 2 minutes for cell lysis, stabilization was induced at room temperature for 10 minutes, and then luminescence was measured. […]

[3] = system: vascular endothelial growth factor (VEGF) in human retinal pigment epithelial cells (ARPE-19 cells); test: Western blotting of VEGF level in ARPE-19 cells; format: cell-based; details: FIG. 1B
Experimental: ARPE-19 cells (RID: CVCL 0145) and L-Wnt3a cells (RID: CVCL 0635) were acquired from American Type Culture Collection (ATCC) and cultured in a DMEM medium supplemented with 10% fetal bovine serum (FBS), 120 μg/mL penicillin and 200 μg/mL streptomycin. Human umbilical vein endothelial cells (HUVECs, RID: CVCL 2959) were purchased from CEFO (Cell Engineering for Origin) and cultured using an optimized medium (CEFOgro-HUVEC). Wnt3a-CM (Wnt3a-conditioned medium) was prepared using L-Wnt3a cells that secrete the Wnt-3a protein into the medium. First, the cells were cultured for 4 days and the medium was recovered and replaced with a fresh medium. After culturing for 3 days, the medium was recovered. The two media were combined and used after passing through a 0.22-μm filter. All the cells were cultured in a cell incubator under the condition of 37° C. and 5% CO2.
Whole cell proteins were obtained using a RIPA buffer. After treating the cells with an appropriate amount of a RIPA buffer supplemented with 1× protease inhibitor, the cells were reacted on ice while vortexing once every 10 minutes. After centrifuging at 13,000 rpm and at 4° C. for 10 minutes and quantifying the obtained supernatant by BRADFORD™ assay, […] of proteins were separated according to molecular weight through electrophoresis. […]

C57BL/6J mice = test: Organ and tissue toxicity (blood GPT, BUN; liver and kidney histology); format: in vivo
Experimental: In order to investigate the effect on the organs (tissues) of C57BL/6J mice, blood was taken from the animals of a test group to which the compound of Example (1) was administered and a control group to which only a solvent was administered 8 weeks after the administration, and blood levels of GPT (glutamate-pyruvate transferase) and BUN (blood urea nitrogen) were measured using SELECT™ E (Vital Scientific NV, Netherlands). […] In addition, the liver and kidney were taken from each animal and subjected to histological observation under an optical microscope through a conventional tissue section preparation process.

ICR mice = test: Acute toxicity, oral, fatality rate at 24 hours; format: in vivo; details: 2.0 g/kg, n=5
Experimental: This experiment was conducted to investigate the acute (within 24 hours) toxicity of the compound of the present disclosure and determine its fatality rate when consumed in an excess amount in a short period of time. ICR mice were assigned to a control group (n=5) and a test group (n=5). Nothing was administered to the control group and the compound of Example (1) was orally administered to the test group at a concentration of 2.0 g/kg (about 50 times the amount used in general animal experiments).

[4] = G5: CGK012 administered alone, FIG. 6B, 6C

| Compound | difference of retinal fluorescence intensity from the positive control EYLEA administration group (G2) [1, 4] | level of retinal fluorescence intensity as compared to the induced control group (G1) [1, 4] | relative fluorescence intensity (% of control group) ([1]; G5: CGK012 instillation 300 μg/eye 2/day, Day 7) | relative fluorescence intensity (% of control group) ([1]; G5: CGK012 instillation 300 μg/eye 2/day, Day 14) | relative fluorescence intensity (% of control group) ([1]; G5: CGK012 instillation 300 μg/eye 2/day, Day 28) | relative fluorescence intensity (% of control group) ([1]; G5: CGK012 instillation 300 μg/eye 2/day, Day 42) | relative fluorescence intensity (% of control group) ([1]; G5: CGK012 instillation 300 μg/eye 2/day, Day 56) | duration of the effect of inhibiting choroidal neovascularization ([1]; G5: single administration of CGK012 (eye drop, without EYLEA)) [weeks] | Fluorescence intensity (% of control group) [1] | cell viability of human endothelial cells (HUVECs) [2] | level of VEGF in ARPE-19 cells [3] | blood level of BUN (blood urea nitrogen) vs control group (C57BL/6J mice; 8 weeks after the administration, kidney toxicity) | blood level of GPT (glutamate-pyruvate transferase) vs control group (C57BL/6J mice; 8 weeks after the administration, liver toxicity) | histological observation of liver and kidney (C57BL/6J mice; optical microscope) | fatality rate 24 hours after the administration (ICR mice) | relative fluorescence intensity (% of control group) ([1]; G2: EYLEA intravitreal 1600 μg/eye 1/3 weeks, Day 7) | relative fluorescence intensity (% of control group) ([1]; G2: EYLEA intravitreal 1600 μg/eye 1/3 weeks, Day 14) | relative fluorescence intensity (% of control group) ([1]; G2: EYLEA intravitreal 1600 μg/eye 1/3 weeks, Day 28) | relative fluorescence intensity (% of control group) ([1]; G2: EYLEA intravitreal 1600 μg/eye 1/3 weeks, Day 42) | relative fluorescence intensity (% of control group) ([1]; G2: EYLEA intravitreal 1600 μg/eye 1/3 weeks, Day 56) |
| --- | --- | --- | --- | --- | --- | --- | --- | --- | --- | --- | --- | --- | --- | --- | --- | --- | --- | --- | --- | --- |
| CC1(C)Oc2cc3oc(=O)ccc3cc2C[C@@H]1OC(=O)NC1CCCC1 [CGK012, (7S)-(+)-cyclopentylcarbarmic acid 8,8-dimethyl-2-oxo-6,7-dihydro-2H,8H-pyrano[3,2-g]chromen-7-yl-ester] | no statistically significant difference | significantly low | 80.877 ± 8.905 % of control group | 79.116 ± 7.972 % of control group | 79.152 ± 6.642 % of control group | 79.137 ± 6.355 % of control group | 81.041 ± 10.391 % of control group | 8 | 75.52 ± 3.93 % of control group | significantly inhibited the survival of the HUVECs at high concentrations | remarkably decreased VEGF | no significant difference was observed | no significant difference was observed | No unusual abnormality was observed | all the animals of the control group and the test group survived | – | – | – | – | – |
| CC(C)=CC(=O)O[C@H]1Cc2cc3ccc(=O)oc3cc2OC1(C)C [decursin, reference compound] | – | – | – | – | – | – | – | – | 95.66 ± 10.80 % of control group | did not significantly induce the apoptosis of the HUVECs even at high concentrations | did not show significant effect on the level of VEGF | – | – | – | – | – | – | – | – | – |
| Aflibercept [EYLEA™, reference compound] | – | – | – | – | – | – | – | – | – | – | – | – | – | – | – | 78.474 ± 8.452 % of control group | 70.022 ± 7.008 % of control group | 69.348 ± 5.013 % of control group | 74.154 ± 9.129 % of control group | 84.087 ± 9.079 % of control group |

Reference: patent US12558339B2, “Composition comprising (7S)-(+)-cyclopentyl carbarmic acid, 8,8-dimethyl-2-oxo-6,7-dihydro-2H,8H-pyrano[3,2-g]chromen-7-yl-ester as active ingredient for prevention, alleviation, or treatment of eye disease” (INSPHARMTECH INC., priority 2021, dated 2026)
